Measured values as given in ChEMBL document CHEMBL4330075, “Discovery of Novel Quinoline-Chalcone Derivatives as Potent Antitumor Agents with Microtubule Polymerization Inhibitory Activity” (J Med Chem, 2019).
Values after ≈ are worked out from the molar mass of the structure shown.

Key:
HCT-8 = experiment: Antiproliferative activity against human HCT8 cells after 72 hrs by MTT assay; format: functional, cell-based; conditions: HCT-8, 72 h
K562 = experiment: Antiproliferative activity against human K562 cells after 72 hrs by MTT assay; format: functional, cell-based; conditions: K562, 72 h
L02 = experiment: Cytotoxicity against human LO2 cells after 72 hrs by MTT assay; format: cell-based; conditions: L02, 72 h
HepG2 = experiment: cells; conditions: Homo sapiens, HepG2, 72 h
MDA-MB-231 = experiment: Antiproliferative activity against human MDA-MB-231 cells after 72 hrs by MTT assay; format: functional, cell-based; conditions: MDA-MB-231, 72 h
KB = experiment: Antiproliferative activity against human KB cells after 72 hrs by MTT assay; format: functional, cell-based
[1] = Selectivity index, ratio of IC50 for human LO2 cells to IC50 for human HepG2 cells; format: toxicity; conditions: LO2 cells and HepG2 cells, read-out: Ratio IC50
[2] = Toxicity in ICR mouse xenografted with […] cells assessed as decrease in body weight at 8 mg/kg, iv administered every 2 days for 21 days and measured every 2 days; format: organism-based; conditions: in vivo
[3] = Antitumor activity against […] H22 cells xenografted in ICR mouse assessed as reduction tumor weight at 8 mg/kg, iv administered every 2 days for 21 days and measured every 2 days relative to control; format: functional
[4] = Aqueous solubility in pH 7.4 phosphate buffer by HPLC analysis; format: physicochemical

Row | IC50 (HCT-8) | IC50 (K562) | IC50 (HepG2) | IC50 (MDA-MB-231) | IC50 (KB) | SMILES | further results
1 | 40 nM | 18 nM | 27 nM | 43 nM | 29 nM | CNc1cc(C(=O)/C(C)=C/c2ccc(OC)c(O)c2)c2ccccc2n1 | IC50 (L02): 1090 nM; selectivity ratio [1]: 40.2
2 | 37 nM | 15 nM | 24 nM | 30 nM | 26 nM | COc1ccc(/C=C(\C)C(=O)c2ccnc3ccccc23)cc1O | IC50 (L02): 928 nM; selectivity ratio [1]: 38.7
3 | – | 120 nM | – | – | – | CCOC(=O)c1cc(C(=O)/C(C)=C/c2ccc(OC)c(O)c2)c2ccccc2n1 | –
4 | 61 nM | 26 nM | 38 nM | 52 nM | 52 nM | COc1cc(C(=O)/C(C)=C/c2ccc(OC)c(O)c2)c2ccccc2n1 | IC50 (L02): 914 nM; selectivity ratio [1]: 24.1
5 | – | > 1000 nM | – | – | – | Cc1cc(C(=O)/C=C/c2ccc3[nH]ccc3c2)c2ccccc2n1 | –
6 | 210 nM | 850 nM | 223 nM | 195 nM | 189 nM | COc1ccc(/C=C/C(=O)c2cc(C)nc3ccccc23)cc1N | –
7 | – | 563 nM | – | – | – | CSc1ccc(/C=C(\C)C(=O)c2cc(C)nc3ccccc23)cc1 | –
8 | – | > 1000 nM | – | – | – | Cc1cc(C(=O)/C=C/c2cccc3[nH]ccc23)c2ccccc2n1 | –
9 | 137 nM | 127 nM | 121 nM | 112 nM | 123 nM | COc1ccc(/C=C/C(=O)c2cc(C)nc3ccccc23)cc1O | –
10 | 36 nM | 11 nM | 36 nM | 63 nM | 25 nM | COc1ccc(/C=C(\C)C(=O)c2cc(C)nc3ccccc23)cc1N | IC50 (L02): 923 nM; selectivity ratio [1]: 25.6
11 | – | 58 nM | – | – | – | COc1ccc(/C=C(\C)C(=O)c2cc(NC3CC3)nc3ccccc23)cc1O | –
12 | – | 110 nM | – | – | – | COc1ccc(/C=C(\C)C(=O)c2cc(C=O)nc3ccccc23)cc1O | –
13 | – | – | – | – | – | CC(=O)O[C@H]1C(=O)[C@@]2(C)[C@H]([C@H](OC(=O)c3ccccc3)[C@]3(O)C[C@H](OC(=O)[C@H](O)[C@@H](NC(=O)c4ccccc4)c4ccccc4)C(C)=C1C3(C)C)[C@]1(OC(C)=O)CO[C@@H]1C[C@@H]2O [PACLITAXEL] | Activity [2]: Toxic; inhibition in vivo at 8 mg/kg [3]: 90.4%
14 | 104 nM | – | – | 102 nM | 108 nM | COc1ccc(/C=C/C(=O)c2cc(OC)c(OC)c(OC)c2)cc1O | solubility [4]: 3.2 µg/mL (≈ 9.29 µM)
15 | – | 1240 nM | – | – | – | COc1ccc(/C=C(\C)C(=O)c2cc(=O)[nH]c3ccccc23)cc1O | –

Row | SMILES | IC50 (HCT-8) | IC50 (K562) | IC50 (HepG2) | IC50 (MDA-MB-231) | IC50 (KB) | further results
16 | COc1ccc(/C=C\c2cc(OC)c(OC)c(OC)c2)cc1O [COMBRETASTATIN A4] | – | 11 nM | – | – | – | –
